Earlier results as cited in US20120100192A1, “LOCAL THERAPEUTIC RELEASE DEVICE” (DEXCEL PHARMA TECHNOLOGIES LTD., priority 2009, published 2012).

How the values were obtained:
alveolar bone loss = details: 24 months, FBP-treated patient group
periodontal disease [1] = details: 100 mg/day for two months; standardized radiography, radiopharmaceutical uptake
[2] = tested on: experimentally induced periodontal disease; details: Macaca mulatta monkeys
periodontal disease [3] = details: topical toothpaste, 1% w/w, twice daily for 12 months
[4] = tested on: naturally occurring periodontitis; details: application for 6-12 months, beagle dogs

For `CC(C(=O)O)c1ccc(-c2ccccc2)c(F)c1` (centres unmarked) [FBP, flurbiprofen], the “Effect on bone loss” value (alveolar bone loss) is listed as “reduction in bone loss”, the “Effect on bone metabolism” value (periodontal disease [1]) is listed as “increased bone metabolism” and the “Effect on attachment, bleeding on probing and gingival redness” value [2] is listed as “significant inhibition of attachment, bleeding on probing and gingival redness”. The Effect on bone (periodontal disease [3]) was “statistically significant bone gain” and the “Effect on alveolar bone loss” value [4] was “inhibited alveolar bone loss”.
